Reference: patent publication US9598406B2, “Quinazolinone derivatives for use in the treatment of chlamydiales infections” (Commissariat a l'Energie Atomique et aux Energies …, priority 2015, dated 2017)

How the values were obtained:
Format in all cases: cell-based
[1] = test system: Simkania negevensis (Sn) strain Z; assay: Simkania negevensis (Sn) infectivity assays in HeLa229 cells (primary and progeny infection; GroEL immunoblot, inclusion size/number, microscopy, TEM)
Procedure: (§1) HeLa229 (ATCC CCL-2.1) were grown in RPMI1640 medium (Glutamax, 10% FBS, w/o HEPES) (Invitrogen). Stable HeLa229 cell lines were established to constantly label the Golgi apparatus (B4GalT1 in a pCMV6-AC-mRFP cloning vector, OriGene) and the ER (KDEL in a pDsRed2-ER expression vector).
Simkania negevensis (Sn) strain Z (ATCC VR-1471) was prepared as described previously (Mehlitz A, Karunakaran K, Herweg J A, Krohne G, van de Linde S, Rieck E, Sauer M, Rudel T. The chlamydial organism Sn forms ER vacuole contact sites and inhibits ER-stress. Cell Microbiol 2014; 16(8):1224-1243).
Briefly, HeLa229 cells were grown to 50-70% confluence, were inoculated with Sn in RPMI1640 with 5% FBS, for 6 h at 35° C. in a humidified incubator at 5% CO2. Medium was replaced by infection medium (RPMI1640, Glutamax, 5% FBS, w/o HEPES) and growth was allowed for 3 days. Cells were mechanically detached and bacteria were released using ˜2-5 mm glass beads (Carl Roth). Low speed supernatant (600×g, 4° C. and 5 min) was subjected to high-speed centrifugation (20,000×g, 4° C. and 30 min) to pellet bacteria. Bacteria were washed twice with 5 ml SPG (250 mM sucrose, 50 mM sodium phosphate, 5 mM glutamate, pH 7.4), aliquoted and stored at −80° C. in SPG.
40,000 HeLa cells were seeded in 12-well cluster plates, inhibitor-treated and infected as indicated in the respective experiments.
For infectivity assays cells were either fixed and stained at indicated time points (FIG. 2, 4; inclusion formation/primary infection) or bacteria were released via one freeze thaw cycle (−70° C./37° C.) followed by mechanical release through pipetting and transfer to fresh HeLa229 cells (1:25-1:50, progeny/infectivity). Cells were centrifuged for 1 h at 35° C. and medium exchanged to infection medium. […] Infectivity assays were imaged on an automated fluorescence microscope Leica DMIR (FIG. 4). Numbers and average sizes of the SCV as well as host cell numbers were determined via GroEL and DAPI staining and images were analysed and quantified using FIJI (ImageJ) and Excel (Microsoft). […]

[2] = test system: Chlamydia trachomatis (Ctr) strain L2/434/Bu; assay: Chlamydia trachomatis progeny infection of HeLa229 cells, cellular protection by compounds at 25 μM (GFP-signal, Image J quantification); settings: HeLa229 cells pretreated 1 hour, Ctr MOI1, progeny infection fixed 48 hpi, versus solvent-treated cells
Procedure: HeLa229 (ATCC CCL-2.1). Cells were grown in RPMI1640 medium (Glutamax, 10% FBS, w/o HEPES) (Invitrogen).
Chlamydia trachomatis (Ctr). Laboratory-adapted strain L2/434/Bu (ATCC VR902B) was used in assays. Full biological and genetic information is available for this strain including complete genome sequence and defined proteome. This strain has a relatively low particle to infectivity ratio, perform efficient cell infection and has a higher viability than standard genital tract isolates with faster developmental cycle. Culture conditions have been described in (Wang Y., Kahane S., Cutcliffe L. T., Skilton R. J., Lambden P. R., Clarke I. N. Development of a transformation system for Chlamydia trachomatis: Restoration of glycogen biosynthesis by acquisition of a plasmid shuttle vector. PLoS Pathogen, 2011, 7(9):e1002258. doi: 10.1371/journal.ppat.1002258).
Compound application during Chlamydia trachomatis infection. HeLa229 cells were pretreated with Retro-2 and Retro-2 derivatives in concentrations of 25 μM for 1 hour until Chlamydia trachomatis (MOI1) were added to the cells. Compounds were present during infection. To obtain progeny infection, compound treated cells were lysed 24 h post infection (hpi) and lysate was used to infect fresh HeLa 229 cells. Infected cells of progeny infection were fixed with 4% Paraformaldehyde 48 hpi. Cells were stained for DAPI and Chlamydia trachomatis were detected by GFP-signal. Images are representative of n=2 independent experiments. Quantification of infected cells by Chlamydia trachomatis was realized from microscopy images with Image J software (FIG. 8) and cellular protection by compounds at 25 μM was then determined (Table 1) by comparison with solvent-treated cells (control) with the following equation: […]

[3] = test system: Chlamydia trachomatis (Ctr) strain L2/434/Bu; assay: Chlamydia trachomatis (Ctr) infectivity assays in HeLa229 cells with Retro-2 at 25, 50 and 75 μM (HSP60 immunoblot, GFP-signal)
Procedure: as §1
Chlamydia trachomatis (Ctr). Laboratory-adapted strain L2/434/Bu (ATCC VR902B) was used in assays. Full biological and genetic information is available for this strain including complete genome sequence and defined proteome. This strain has a relatively low particle to infectivity ratio, perform efficient cell infection and has a higher viability than standard genital tract isolates with faster developmental cycle. […]
(A) Cells with primary infection were lysed 24 h post infection (hpi). […] Progeny infection was lysed 24 hpi and analyzed together with primary infection samples by immunoblot. Chlamydial growth was detected with antibodies against chlamydial HSP60 protein and Actin was used as loading control (FIG. 6).
(B) Infected cells were fixed with 4% Paraformaldehyde 24 hpi. Cells were stained by Alexa-680 coupled Phalloidin and Ctr were detected by GFP-signal (FIG. 7).

Row | SMILES | Cellular protection at 25 μM (%) [2] | further results
1 | Cc1ccc(C2Nc3ccccc3C(=O)N2c2ccccc2)s1 (centres unmarked) [Retro-2, 2-(5-methylthiophen-2-yl)-3-phenyl-2,3-dihydroquinazolin-4(1H)-one] | 18.1% | Concentration at which maximal inhibition of Sn replication was observed ([1]; HeLa cells, FIGS. 1-4): 75 µM; Effect on primary and progeny infection for Sn ([1]; HeLa cells, Retro-2 at 25 and 75 μM, GroEL western, inclusion size, inclusion number, microscopy): inhibitir effect on primary and progeny infection; Sn inclusions morphology (transmission electron microscopy) ([1]; infected HeLa cells, versus DMSO-treated control, FIG. 5): sub-vacuolar membranes were highly enlarged and contained excessive membrane material; Ctr Hsp60 detection in the progeny infection ([3]; 75 μM of Retro-2, immunoblot, FIG. 6): almost no Ctr Hsp60 detection; Effect on Ctr development (Hsp60 western, GFP-expressing Ctr inclusions) ([3]; HeLa229 cells, Retro-2 25, 50 and 75 μM, primary infection 24 hpi): strong inhibitory effect
2 | Cc1nc(-c2ccc(C3N(C)c4ccc(F)cc4C(=O)N3c3ccccc3)s2)cs1 (centres unmarked) [Retro-2.1, 6-fluoro-1-methyl-2-(5-(2-methylthiazol-4-yl)thiophen-2-yl)-3-phenyl-2,3-dihydroquinazolin-4(1H)-one] | 100% | –
3 | Cc1nc(-c2ccc(C3Nc4ccccc4C(=O)N3c3ccccc3)s2)cs1 (centres unmarked) [Compound 25, 2-(5-(2-methylthiazol-4-yl)thiophen-2-yl)-3-phenyl-2,3-dihydroquinazolin-4(1H)-one] | 100% | –
4 | CN1c2ccccc2C(=O)N(c2ccccc2)C1c1ccc(-c2csc(-c3ccc(F)cc3)n2)s1 (centres unmarked) [VP-89, 2-(5-(2-(4-fluorophenyl)thiazol-4-yl)thiophen-2-yl)-1-methyl-3-phenyl-2,3-dihydroquinazolin-4(1H)-one] | 88.5% | –
5 | CN1c2ccccc2C(=O)N(c2ccccc2)C1c1ccc(Br)s1 (centres unmarked) [RN-2-016, 2-(5-bromothiophen-2-yl)-1-methyl-3-phenyl-2,3-dihydroquinazolin-4(1H)-one] | 91.8% | –
6 | Cc1nc(-c2ccc(C3N(C)c4ccccc4C(=O)N3c3ccccc3Cl)s2)cs1 (centres unmarked) [RN-3-072, 3-(2-chlorophenyl)-1-methyl-2-(5-(2-methylthiazol-4-yl)thiophen-2-yl)-2,3-dihydroquinazolin-4(1H)-one] | 100% | –
